From PubChem BioAssay AID1963825 (Molecular Pharmacology Branch, DTP, NCI, 2024)

assay: Anticancer human tumor 997537-175-T-J1-PDC patient-derived colon adenocarcinoma cell line growth inhibition [POLQ]; conditions: 997537-175-T-J1-PDC complex spheroid viability, combination with POLQ inhibitors; second compound 0.316 µM; first compound 0.316 µM; hits give low values
Procedure, shortened: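 PDC + HUVEC + MSC complex spheroids; POLQ inhibitors ± partner drugs; top conc. at/near clinical Cmax, else 10 microM (SN-38 1 microM), half-log dilutions; 37 degrees C, 5% CO2.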
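Also: luminescence signal used as a surrogate for viable cells; spheroids exposed to drugs for seven days before readout.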

Compound | viability, T/C
CNCc1ccc(-c2[nH]c3cc(F)cc4c3c2CCNC4=O)cc1 + Nc1ccc(C#CCN(C(=O)Cc2ncc(C(F)(F)F)cc2C(F)(F)F)c2ccc(F)cc2)nn1 | 106%
O=C(c1cc(Cc2n[nH]c(=O)c3ccccc23)ccc1F)N1CCN(C(=O)C2CC2)CC1 + Cc1cccc(N(C)C(=O)C2C(O)CCN2c2nc(C)cc(C(F)(F)F)c2C#N)c1 | 109%

same assay, conditions: 997537-175-T-J1-PDC complex spheroid viability, combination with POLQ inhibitors; second compound 0.316 µM; first compound 1 µM; hits give low values

Compound | viability, T/C
CCc1c2c(nc3ccc(O)cc13)-c1cc3c(c(=O)n1C2)COC(=O)[C@]3(O)CC + COC1C(OC(N)=O)C(O)C(Oc2ccc3c(O)c(NC(=O)c4ccc(O)c(CC=C(C)C)c4)c(=O)oc3c2C)OC1(C)C | 6.93%
CC1COCCN1c1cc(C2(S(C)(=N)=O)CC2)nc(-c2ccnc3[nH]ccc23)n1 (configuration not stated) + Cc1cccc(N(C)C(=O)C2C(O)CCN2c2nc(C)cc(C(F)(F)F)c2C#N)c1 | 91.6%
CNCc1ccc(-c2[nH]c3cc(F)cc4c3c2CCNC4=O)cc1 + Nc1ccc(C#CCN(C(=O)Cc2ncc(C(F)(F)F)cc2C(F)(F)F)c2ccc(F)cc2)nn1 | 90.8%
O=C(c1cc(Cc2n[nH]c(=O)c3ccccc23)ccc1F)N1CCN(C(=O)C2CC2)CC1 + Cc1cccc(N(C)C(=O)C2C(O)CCN2c2nc(C)cc(C(F)(F)F)c2C#N)c1 | 99%

same assay, conditions: 997537-175-T-J1-PDC complex spheroid viability, combination with POLQ inhibitors; second compound 0.316 µM; first compound 3.16 µM; hits give low values

Compound | viability, T/C
CC1COCCN1c1cc(C2(S(C)(=N)=O)CC2)nc(-c2ccnc3[nH]ccc23)n1 (configuration not stated) + Cc1cccc(N(C)C(=O)C2C(O)CCN2c2nc(C)cc(C(F)(F)F)c2C#N)c1 | 57.9%
CNCc1ccc(-c2[nH]c3cc(F)cc4c3c2CCNC4=O)cc1 + Nc1ccc(C#CCN(C(=O)Cc2ncc(C(F)(F)F)cc2C(F)(F)F)c2ccc(F)cc2)nn1 | 97.7%
O=C(c1cc(Cc2n[nH]c(=O)c3ccccc23)ccc1F)N1CCN(C(=O)C2CC2)CC1 + Cc1cccc(N(C)C(=O)C2C(O)CCN2c2nc(C)cc(C(F)(F)F)c2C#N)c1 | 118%

same assay, conditions: 997537-175-T-J1-PDC complex spheroid viability, combination with POLQ inhibitors; second compound 0.316 µM; first compound 10 µM; hits give low values

Compound | viability, T/C
CC1COCCN1c1cc(C2(S(C)(=N)=O)CC2)nc(-c2ccnc3[nH]ccc23)n1 (configuration not stated) + Cc1cccc(N(C)C(=O)C2C(O)CCN2c2nc(C)cc(C(F)(F)F)c2C#N)c1 | 49.1%
CNCc1ccc(-c2[nH]c3cc(F)cc4c3c2CCNC4=O)cc1 + Nc1ccc(C#CCN(C(=O)Cc2ncc(C(F)(F)F)cc2C(F)(F)F)c2ccc(F)cc2)nn1 | 99.7%
O=C(c1cc(Cc2n[nH]c(=O)c3ccccc23)ccc1F)N1CCN(C(=O)C2CC2)CC1 + Cc1cccc(N(C)C(=O)C2C(O)CCN2c2nc(C)cc(C(F)(F)F)c2C#N)c1 | 110%

same assay, conditions: 997537-175-T-J1-PDC complex spheroid viability, combination with POLQ inhibitors; second compound 1 µM; first compound 0.00316 µM; hits give low values

Compound | viability, T/C
CCc1c2c(nc3ccc(O)cc13)-c1cc3c(c(=O)n1C2)COC(=O)[C@]3(O)CC + COC1C(OC(N)=O)C(O)C(Oc2ccc3c(O)c(NC(=O)c4ccc(O)c(CC=C(C)C)c4)c(=O)oc3c2C)OC1(C)C | 88.8%

same assay, conditions: 997537-175-T-J1-PDC complex spheroid viability, combination with POLQ inhibitors; second compound 1 µM; first compound 0.01 µM; hits give low values

Compound | viability, T/C
CCc1c2c(nc3ccc(O)cc13)-c1cc3c(c(=O)n1C2)COC(=O)[C@]3(O)CC + COC1C(OC(N)=O)C(O)C(Oc2ccc3c(O)c(NC(=O)c4ccc(O)c(CC=C(C)C)c4)c(=O)oc3c2C)OC1(C)C | 60.1%

same assay, conditions: 997537-175-T-J1-PDC complex spheroid viability, combination with POLQ inhibitors; second compound 1 µM; first compound 0.0316 µM; hits give low values

Compound | viability, T/C
CCc1c2c(nc3ccc(O)cc13)-c1cc3c(c(=O)n1C2)COC(=O)[C@]3(O)CC + COC1C(OC(N)=O)C(O)C(Oc2ccc3c(O)c(NC(=O)c4ccc(O)c(CC=C(C)C)c4)c(=O)oc3c2C)OC1(C)C | 32.1%
CC1COCCN1c1cc(C2(S(C)(=N)=O)CC2)nc(-c2ccnc3[nH]ccc23)n1 (configuration not stated) + Cc1cccc(N(C)C(=O)C2C(O)CCN2c2nc(C)cc(C(F)(F)F)c2C#N)c1 | 106%
CNCc1ccc(-c2[nH]c3cc(F)cc4c3c2CCNC4=O)cc1 + Nc1ccc(C#CCN(C(=O)Cc2ncc(C(F)(F)F)cc2C(F)(F)F)c2ccc(F)cc2)nn1 | 90%
O=C(c1cc(Cc2n[nH]c(=O)c3ccccc23)ccc1F)N1CCN(C(=O)C2CC2)CC1 + Cc1cccc(N(C)C(=O)C2C(O)CCN2c2nc(C)cc(C(F)(F)F)c2C#N)c1 | 99.1%

same assay, conditions: 997537-175-T-J1-PDC complex spheroid viability, combination with POLQ inhibitors; second compound 1 µM; first compound 0.1 µM; hits give low values

Compound | viability, T/C
CCc1c2c(nc3ccc(O)cc13)-c1cc3c(c(=O)n1C2)COC(=O)[C@]3(O)CC + COC1C(OC(N)=O)C(O)C(Oc2ccc3c(O)c(NC(=O)c4ccc(O)c(CC=C(C)C)c4)c(=O)oc3c2C)OC1(C)C | 19.2%
CC1COCCN1c1cc(C2(S(C)(=N)=O)CC2)nc(-c2ccnc3[nH]ccc23)n1 (configuration not stated) + Cc1cccc(N(C)C(=O)C2C(O)CCN2c2nc(C)cc(C(F)(F)F)c2C#N)c1 | 104%
CNCc1ccc(-c2[nH]c3cc(F)cc4c3c2CCNC4=O)cc1 + Nc1ccc(C#CCN(C(=O)Cc2ncc(C(F)(F)F)cc2C(F)(F)F)c2ccc(F)cc2)nn1 | 108%
O=C(c1cc(Cc2n[nH]c(=O)c3ccccc23)ccc1F)N1CCN(C(=O)C2CC2)CC1 + Cc1cccc(N(C)C(=O)C2C(O)CCN2c2nc(C)cc(C(F)(F)F)c2C#N)c1 | 102%

same assay, conditions: 997537-175-T-J1-PDC complex spheroid viability, combination with POLQ inhibitors; second compound 1 µM; first compound 0.316 µM; hits give low values

Compound | viability, T/C
CCc1c2c(nc3ccc(O)cc13)-c1cc3c(c(=O)n1C2)COC(=O)[C@]3(O)CC + COC1C(OC(N)=O)C(O)C(Oc2ccc3c(O)c(NC(=O)c4ccc(O)c(CC=C(C)C)c4)c(=O)oc3c2C)OC1(C)C | 6.28%
CC1COCCN1c1cc(C2(S(C)(=N)=O)CC2)nc(-c2ccnc3[nH]ccc23)n1 (configuration not stated) + Cc1cccc(N(C)C(=O)C2C(O)CCN2c2nc(C)cc(C(F)(F)F)c2C#N)c1 | 80.3%
CNCc1ccc(-c2[nH]c3cc(F)cc4c3c2CCNC4=O)cc1 + Nc1ccc(C#CCN(C(=O)Cc2ncc(C(F)(F)F)cc2C(F)(F)F)c2ccc(F)cc2)nn1 | 102%
O=C(c1cc(Cc2n[nH]c(=O)c3ccccc23)ccc1F)N1CCN(C(=O)C2CC2)CC1 + Cc1cccc(N(C)C(=O)C2C(O)CCN2c2nc(C)cc(C(F)(F)F)c2C#N)c1 | 109%

same assay, conditions: 997537-175-T-J1-PDC complex spheroid viability, combination with POLQ inhibitors; second compound 1 µM; first compound 1 µM; hits give low values

Compound | viability, T/C
CCc1c2c(nc3ccc(O)cc13)-c1cc3c(c(=O)n1C2)COC(=O)[C@]3(O)CC + COC1C(OC(N)=O)C(O)C(Oc2ccc3c(O)c(NC(=O)c4ccc(O)c(CC=C(C)C)c4)c(=O)oc3c2C)OC1(C)C | 5.11%
CC1COCCN1c1cc(C2(S(C)(=N)=O)CC2)nc(-c2ccnc3[nH]ccc23)n1 (configuration not stated) + Cc1cccc(N(C)C(=O)C2C(O)CCN2c2nc(C)cc(C(F)(F)F)c2C#N)c1 | 78.9%
CNCc1ccc(-c2[nH]c3cc(F)cc4c3c2CCNC4=O)cc1 + Nc1ccc(C#CCN(C(=O)Cc2ncc(C(F)(F)F)cc2C(F)(F)F)c2ccc(F)cc2)nn1 | 94.6%
O=C(c1cc(Cc2n[nH]c(=O)c3ccccc23)ccc1F)N1CCN(C(=O)C2CC2)CC1 + Cc1cccc(N(C)C(=O)C2C(O)CCN2c2nc(C)cc(C(F)(F)F)c2C#N)c1 | 97.1%

same assay, conditions: 997537-175-T-J1-PDC complex spheroid viability, combination with POLQ inhibitors; second compound 1 µM; first compound 3.16 µM; hits give low values

Compound | viability, T/C
CC1COCCN1c1cc(C2(S(C)(=N)=O)CC2)nc(-c2ccnc3[nH]ccc23)n1 (configuration not stated) + Cc1cccc(N(C)C(=O)C2C(O)CCN2c2nc(C)cc(C(F)(F)F)c2C#N)c1 | 44.7%
CNCc1ccc(-c2[nH]c3cc(F)cc4c3c2CCNC4=O)cc1 + Nc1ccc(C#CCN(C(=O)Cc2ncc(C(F)(F)F)cc2C(F)(F)F)c2ccc(F)cc2)nn1 | 110%
O=C(c1cc(Cc2n[nH]c(=O)c3ccccc23)ccc1F)N1CCN(C(=O)C2CC2)CC1 + Cc1cccc(N(C)C(=O)C2C(O)CCN2c2nc(C)cc(C(F)(F)F)c2C#N)c1 | 100%

same assay, conditions: 997537-175-T-J1-PDC complex spheroid viability, combination with POLQ inhibitors; second compound 1 µM; first compound 10 µM; hits give low values

Compound | viability, T/C
CC1COCCN1c1cc(C2(S(C)(=N)=O)CC2)nc(-c2ccnc3[nH]ccc23)n1 (configuration not stated) + Cc1cccc(N(C)C(=O)C2C(O)CCN2c2nc(C)cc(C(F)(F)F)c2C#N)c1 | 52.7%
CNCc1ccc(-c2[nH]c3cc(F)cc4c3c2CCNC4=O)cc1 + Nc1ccc(C#CCN(C(=O)Cc2ncc(C(F)(F)F)cc2C(F)(F)F)c2ccc(F)cc2)nn1 | 89.8%
O=C(c1cc(Cc2n[nH]c(=O)c3ccccc23)ccc1F)N1CCN(C(=O)C2CC2)CC1 + Cc1cccc(N(C)C(=O)C2C(O)CCN2c2nc(C)cc(C(F)(F)F)c2C#N)c1 | 87.5%

same assay, conditions: 997537-175-T-J1-PDC complex spheroid viability, combination with POLQ inhibitors; second compound 3.16 µM; first compound 0.00316 µM; hits give low values

Compound | viability, T/C
CCc1c2c(nc3ccc(O)cc13)-c1cc3c(c(=O)n1C2)COC(=O)[C@]3(O)CC + COC1C(OC(N)=O)C(O)C(Oc2ccc3c(O)c(NC(=O)c4ccc(O)c(CC=C(C)C)c4)c(=O)oc3c2C)OC1(C)C | 88.9%

same assay, conditions: 997537-175-T-J1-PDC complex spheroid viability, combination with POLQ inhibitors; second compound 3.16 µM; first compound 0.01 µM; hits give low values

Compound | viability, T/C
CCc1c2c(nc3ccc(O)cc13)-c1cc3c(c(=O)n1C2)COC(=O)[C@]3(O)CC + COC1C(OC(N)=O)C(O)C(Oc2ccc3c(O)c(NC(=O)c4ccc(O)c(CC=C(C)C)c4)c(=O)oc3c2C)OC1(C)C | 74%

same assay, conditions: 997537-175-T-J1-PDC complex spheroid viability, combination with POLQ inhibitors; second compound 3.16 µM; first compound 0.0316 µM; hits give low values

Compound | viability, T/C
CCc1c2c(nc3ccc(O)cc13)-c1cc3c(c(=O)n1C2)COC(=O)[C@]3(O)CC + COC1C(OC(N)=O)C(O)C(Oc2ccc3c(O)c(NC(=O)c4ccc(O)c(CC=C(C)C)c4)c(=O)oc3c2C)OC1(C)C | 29.4%
CC1COCCN1c1cc(C2(S(C)(=N)=O)CC2)nc(-c2ccnc3[nH]ccc23)n1 (configuration not stated) + Cc1cccc(N(C)C(=O)C2C(O)CCN2c2nc(C)cc(C(F)(F)F)c2C#N)c1 | 111%
CNCc1ccc(-c2[nH]c3cc(F)cc4c3c2CCNC4=O)cc1 + Nc1ccc(C#CCN(C(=O)Cc2ncc(C(F)(F)F)cc2C(F)(F)F)c2ccc(F)cc2)nn1 | 93.1%
O=C(c1cc(Cc2n[nH]c(=O)c3ccccc23)ccc1F)N1CCN(C(=O)C2CC2)CC1 + Cc1cccc(N(C)C(=O)C2C(O)CCN2c2nc(C)cc(C(F)(F)F)c2C#N)c1 | 101%
